{
  "source": "patent US20090215813A1",
  "about": "“HISTONE DEACETYLASE INHIBITORS AS IMMUNOSUPPRESSANTS” (priority 2003, published 2009)",
  "key": {"[1]": {"tested_on": "heart graft, strain combination Lewis and BN", "assay": "Rat heart transplantation, graft survival and histology", "assay_type": "in vivo", "conditions": "for effect of co-administration: test not named", "description": "Rat Heart Transplantation\nThe strain combination used is Male Lewis (RT1 haplotype) and BN (RT1 haplotype). The animals are anaesthetized using inhalation isofluorane. […] The aorta is ligated and divided distal to the first branch and the brachiocephalic trunk is divided at the first bifurcation. The left pulmonary artery is ligated and divided and the right side divided but left open. All other vessels are dissected free, ligated and divided and the donor heart is removed into iced saline.\nThe recipient is prepared by dissection and cross-clamping of the infra-renal abdominal aorta and vena cava. The graft is implanted with end-to-side anastomoses, using 10/0 monofilament suture, between the donor brachiocephalic trunk and the recipient aorta and the donor right pulmonary artery to the recipient vena cava. The clamps are removed, the graft tethered retroabdominally, the abdominal contents washed with warm saline and the animal is closed and allowed to recover under a heating lamp. Animals are treated with saline (control); an HDAI compound e.g. a compound of formula (I), e.g. N-hydroxy-3-[4-[[[2-(2-methyl-1H-indol-3-yl)-ethyl]-amino]methyl]phenyl]-2E-2-propenamide (“compound P1”); 40-O-(2-hydroxyethyl)-rapamycin (“compound P2”) prepared according to the methods described in WO 94/09010; FTY720 (“compound P3”) prepared according to Example 28 of WO 94/08943, or combinations of the each as indicated. Graft survival is monitored by daily palpation of the beating donor heart through the abdominal wall. Rejection is considered to be complete when heart beat stops. At that point the animal is euthanized and the transplanted heart is fixed for histology. […] The scale for grading for acute rejection is 1=slight; 2=moderate; 3=marked; 4=severe."}, "[2]": {"tested_on": "Balb/c (H-2d) heart graft in C57BL/6J (H-2b) recipients", "assay": "Acute rejection, heterotopic heart transplantation, graft survival", "assay_type": "in vivo, mice", "conditions": "versus saline, across dosing schedules", "procedure": "Balb/c (H-2^d) mice are used as donor animals, and e.g. C57BL/6J (H-2^b) mice as recipients. The heart is removed from the donors according to known procedures and stored in cold saline (4° C.). The recipient animals are anaesthetised with isofluorane. […] Blood vessels are dissected free from the fascia for a length of 3-5 mm, ligating and dividing any small branches. Vessels are occluded, first proximally and then distally. An arteriotomy and venotomy is performed, and lumens are flushed with heparinised physiological saline. […] The distal ligature is removed, then the proximal ligature. The suture lines are checked for leakage. Then the graft is tethered retroabdobminally. The abdomen is flooded with warm saline (37° C.) and the wound is closed. Graft function is monitored daily by palpation of the abdomen. Rejection is concluded when the graft stops beating. Animals are treated with a 100 μL subcutaneous injection of saline or a solution of a HDAI, e.g. the compound of formula (I), e.g. N-hydroxy-3-[4-[[[2-(2-methyl-1H-indol-3-yl)-ethyl]-amino]methyl]phenyl]-2E-2-propenamide in lactate buffer pH 5.5 according to the dosing schedule shown in Table 1 below: […]"}, "[3]": {"tested_on": "spleen cells from CBA and BALB/c mice", "assay": "Allogeneic two-way mixed lymphocyte reaction (MLR)", "assay_type": "cell-based", "conditions": "two-way mouse MLR, 3H-thymidine incorporation after four days, read-out: IC50 value (concentration required for 50% inhibition of proliferation)", "procedure": "Cellular Assay: Allogeneic Mixed Lymphocyte Reaction (MLR)\nThe two-way MLR is performed according to standard procedures (J. Immunol. Methods, 1973, 2, 279 and Meo T. et al., Immunological Methods, New York, Academic Press, 1979, 227-39). Briefly, spleen cells from CBA and BALB/c mice (1.6×10^5 cells from each strain per well in flat bottom tissue culture microtiter plates, 3.2×10^5 in total) are incubated in RPMI medium containing 10% FCS, 100 U/ml penicillin, 100 μg/ml streptomycin (Gibco BRL, Basel, Switzerland), 50 μM 2-mercaptoethanol (Fluka, Buchs, Switzerland) and serially diluted compounds. Seven three-fold dilution steps in duplicates per test compound are performed. After four days of incubation 1 μCi ^3H-thymidine is added. Cells are harvested after an additional five-hour incubation period, and incorporated ^3H-thymidine is determined according to standard procedures. Background values (low control) of the MLR are the proliferation of BALB/c cells alone. Low controls are subtracted from all values. High controls without any sample are taken as 100% proliferation. Percent inhibition by the samples is calculated, and the concentrations required for 50% inhibition (IC50 values) are determined. In this assay, the agents of the invention have IC50 values in the range of 1 nM to 10 μM, preferably from 1 nM to 500 nM."}},
  "data": [
    {"molecule": "CCCCCCCCc1ccc(CCC(N)(CO)CO)cc1", "note": "[Compound P3, FTY720, reference compound]", "values": [
      {"measurement": "Median survival time (MST)", "setting": "[1]; 0.1 mg/kg/d p.o., rat", "value": 7.5}
    ]},
    {"molecule": "CO[C@H]1C[C@@H]2CC[C@@H](C)[C@@](O)(O2)C(=O)C(=O)N2CCCC[C@H]2C(=O)O[C@H]([C@H](C)C[C@@H]2CC[C@@H](OCCO)[C@H](OC)C2)CC(=O)[C@H](C)/C=C(\\C)[C@@H](O)[C@@H](OC)C(=O)[C@H](C)C[C@H](C)/C=C/C=C/C=C/1C", "note": "[Compound P2, 40-O-(2-hydroxyethyl)-rapamycin, reference compound]", "values": [
      {"measurement": "Median survival time (MST)", "setting": "[1]; 0.3 mg/kg/d p.o., rat", "value": 7}
    ]},
    {"molecule": "Cc1[nH]c2ccccc2c1CCNCc1ccc(/C=C/C(=O)NO)cc1", "note": "[Compound P1, N-hydroxy-3-[4-[[[2-(2-methyl-1H-indol-3-yl)-ethyl]-amino]methyl]phenyl]-2E-2-propenamide]", "values": [
      {"measurement": "increases graft survival", "setting": "[2]", "value": "2-5 times the number of days"},
      {"measurement": "Median survival time (MST)", "setting": "[1]; 0.3 mg/kg/d s.c., rat", "value": 6},
      {"measurement": "Median survival time (MST)", "setting": "[1]; 1.0 mg/kg/d s.c., rat", "value": ">28"},
      {"measurement": "Survival (days) for each individual graft", "setting": "[1]; 1.0 mg/kg/d s.c., rat", "value": ">28, >28, >28 days"},
      {"measurement": "effect of co-administration", "setting": "[1]; co-administered with a mTOR inhibitor, e.g. 40-O-(2-hydroxyethyl)-rapamycin", "value": "synergistic effect"},
      {"measurement": "effect of co-administration", "setting": "[1]; co-administered with a sphingosine 1-phosphate receptor agonist", "value": "synergistic effect"},
      {"measurement": "IC50", "setting": "[3]", "value": 9, "unit": "nM"}
    ]}
  ]
}
